“Also recorded” adds a separate entry of the source. Like-named read-outs stand apart in the source and are kept apart here.
Tests used:
[1] = molecular target: rat nNOS (Rattus norvegicus (Rat), UniProt P29476)
[2] = molecular target: eNOS (Bos taurus, UniProt P29473); settings: read-out: Ki eNOS; Ki from IC50 by Cheng-Prusoff
[3] = tested on: eNOS; settings: for Ratios n/e: selectivity nNOS over eNOS
[4] = molecular target: T1, iNOS (Mus musculus (Mouse), UniProt P29477); settings: for Ki: read-out: Ki iNOS, Ki from IC50 by Cheng-Prusoff; for Ratios n/i: selectivity nNOS over iNOS
[5] = tested on: caco-2; assay: Caco-2 assay; assay type: in vitro ADME
[6] = tested on: panel of other CNS targets, including the muscarinic receptors; assay: Primary binding assays on a panel of other CNS targets (NIMH PDSP); settings: 10 μM concentration
[7] = molecular target: human nNOS (Homo sapiens (Human), UniProt P29475); settings: for Ki: read-out: Ki hnNOS, Ki from IC50 by Cheng-Prusoff
[8] = molecular target: T1, iNOS; assay: biochemical
[9] = molecular target: CYP3A4 (Homo sapiens (Human), UniProt P08684); assay: CYP3A4 inhibition; assay type: in vitro ADME
Chain of CYP3A4 (P08684 whole entry, species assumed): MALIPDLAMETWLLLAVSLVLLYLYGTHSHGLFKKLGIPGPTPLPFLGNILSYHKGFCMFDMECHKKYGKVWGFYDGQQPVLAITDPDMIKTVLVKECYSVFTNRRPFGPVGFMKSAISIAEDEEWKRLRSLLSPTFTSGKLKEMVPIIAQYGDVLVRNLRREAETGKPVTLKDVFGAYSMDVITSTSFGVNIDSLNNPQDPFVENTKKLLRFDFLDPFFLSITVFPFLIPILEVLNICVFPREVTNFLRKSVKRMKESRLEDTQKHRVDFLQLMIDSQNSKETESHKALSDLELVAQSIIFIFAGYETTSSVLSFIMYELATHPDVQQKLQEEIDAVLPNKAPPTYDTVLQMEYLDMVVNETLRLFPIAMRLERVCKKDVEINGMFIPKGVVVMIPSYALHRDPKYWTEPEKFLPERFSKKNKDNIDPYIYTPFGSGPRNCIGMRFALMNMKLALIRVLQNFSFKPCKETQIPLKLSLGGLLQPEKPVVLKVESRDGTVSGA

[10] = read-out: Ki nNOS, rat nNOS, Ki from IC50 by Cheng-Prusoff
[11] = rat nNOS, Ki from IC50 by Cheng-Prusoff

Chain of eNOS (Bos taurus, UniProt P29473) (P29473 2-1205 limits assumed): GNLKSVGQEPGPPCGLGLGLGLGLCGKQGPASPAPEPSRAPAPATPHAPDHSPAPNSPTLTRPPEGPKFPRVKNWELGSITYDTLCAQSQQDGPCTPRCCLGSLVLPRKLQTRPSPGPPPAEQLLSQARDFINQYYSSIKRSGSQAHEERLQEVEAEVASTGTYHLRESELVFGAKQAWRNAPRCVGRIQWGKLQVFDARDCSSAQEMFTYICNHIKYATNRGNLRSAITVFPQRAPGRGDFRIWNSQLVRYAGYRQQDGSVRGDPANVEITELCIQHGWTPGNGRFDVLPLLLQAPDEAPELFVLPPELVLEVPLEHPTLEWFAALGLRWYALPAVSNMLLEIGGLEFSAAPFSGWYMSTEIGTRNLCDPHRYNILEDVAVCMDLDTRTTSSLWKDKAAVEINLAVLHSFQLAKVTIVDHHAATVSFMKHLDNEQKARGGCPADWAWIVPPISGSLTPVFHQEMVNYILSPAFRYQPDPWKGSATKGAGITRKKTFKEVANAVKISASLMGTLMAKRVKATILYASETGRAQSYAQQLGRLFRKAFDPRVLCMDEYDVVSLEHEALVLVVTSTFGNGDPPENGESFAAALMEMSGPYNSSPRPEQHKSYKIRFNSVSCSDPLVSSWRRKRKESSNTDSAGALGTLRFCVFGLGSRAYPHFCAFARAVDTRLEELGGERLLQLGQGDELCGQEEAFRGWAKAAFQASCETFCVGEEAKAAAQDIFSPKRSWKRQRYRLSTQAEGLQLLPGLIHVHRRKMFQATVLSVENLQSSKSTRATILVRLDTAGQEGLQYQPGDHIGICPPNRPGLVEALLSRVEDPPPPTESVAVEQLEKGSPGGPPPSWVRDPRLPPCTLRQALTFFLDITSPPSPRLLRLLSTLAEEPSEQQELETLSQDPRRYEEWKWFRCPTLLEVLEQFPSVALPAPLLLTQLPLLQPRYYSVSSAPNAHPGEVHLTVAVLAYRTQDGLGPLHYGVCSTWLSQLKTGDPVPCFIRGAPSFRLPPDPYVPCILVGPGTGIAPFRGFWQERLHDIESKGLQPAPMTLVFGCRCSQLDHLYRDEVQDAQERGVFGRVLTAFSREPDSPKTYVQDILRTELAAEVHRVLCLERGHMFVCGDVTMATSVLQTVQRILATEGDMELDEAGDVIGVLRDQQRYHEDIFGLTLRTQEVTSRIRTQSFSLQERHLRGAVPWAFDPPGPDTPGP

Row | SMILES | Ki [1, 10] | Ki [2] | Ratios n/e [3] | Ki [4] | Ratios n/i [4] | Ki [7] | other results
1 | Fc1cccc(CCN2CCN(c3ccnc(-n4ccnc4)n3)CC2)c1 [Compound 2] | 4700 nM |  |  |  |  |  | 
2 | Fc1cccc(CCNCCNc2ccnc(-n3ccnc3)n2)c1 [Compound 3] | 370 nM | 40000 nM | 109 | 6400 nM | 17 |  | Ki nNOS [1, 11]: moderate submicromolar; selectivity over eNOS [3]: > 100 fold; selectivity over iNOS [4]: 17 fold
3 | Fc1cccc(CCNCc2ccnc(-n3ccnc3)n2)c1 [Compound 4] | 8700 nM |  |  |  |  |  | 
4 | Fc1cccc(CCCNCc2ccnc(-n3ccnc3)n2)c1 [Compound 5] | 2700 nM | 90000 nM | 33 | 10500 nM | 4 |  | 
5 | Fc1cccc(CCNCCc2ccnc(-n3ccnc3)n2)c1 [Compound 6] |  | 4000 nM |  | 1100 nM |  |  | 
6 | Fc1cccc(CCCNCCc2ccnc(-n3ccnc3)n2)c1 [Compound 7] | 19 nM | 4950 nM |  | 770 nM |  | 193 nM | membrane / cellular permeability [5]: good cellular permeability; also recorded: has membrane permeability; inhibition of other CNS targets [6]: minimal inhibition for most of them
7 | Clc1cccc(CCCNCCc2ccnc(-n3ccnc3)n2)c1 [Compound 25] | 32 nM | 8100 nM | 253 |  | 28 | 125 nM | Ki [8]: 2000 nM
8 | Fc1cccc(C2CC2CNCCc2ccnc(-n3ccnc3)n2)c1 (centres unmarked) [Compound 26] | 56 nM | 4000 nM | 71 | 1900 nM | 34 | 359 nM | 
9 | Fc1cccc(CC2CC2NCCc2ccnc(-n3ccnc3)n2)c1 (centres unmarked) [Compound 27] | 40 nM | 14500 nM |  |  |  | 358 nM | 
10 | N#Cc1cccc(CNCCc2ccnc(-n3ccnc3)n2)c1 [Compound 28] | 183 nM | 10500 nM |  | 3400 nM |  | 138 nM | 
11 | c1cncc(CCCNCCc2ccnc(-n3ccnc3)n2)c1 [Compound 29] | 54 nM | 10900 nM |  |  |  | 125 nM | Ki nNOS [1, 11]: good potency; Ki hnNOS ([7]; Ki from IC50 by Cheng-Prusoff): good potency
12 | Fc1cccc(CCCNCCc2ccnc(-n3ccnn3)n2)c1 [Compound 30] | 60000 nM |  |  |  |  |  | 
13 | Cc1cn(-c2nccc(CCNCCCc3cccc(F)c3)n2)cn1 [Compound 31] | 667 nM |  | 256 |  | 430 | 4490 nM | Ki ([1]; read-out: potency for nNOS): 667 nM; Ki [8]: 287000 nM; IC50 [9]: 15000 nM
14 | Fc1cccc(CCNCCc2cncc(-n3ccnc3)c2)c1 [Compound 48] | 5500 nM |  |  |  |  |  | 
